Data set [1] is described as follows: Pharmacokinetics in mouse. Format: in vivo.
The next data set relates to lamina IIo neurons. The arrangement: dose or concentration left out as unconfirmed. The settings on record: slices of PTX-treated mice.
For data set [2] the following is noted: mouse, in vivo; cited from earlier work.
The nature of data set [3]: Rotarod test of motor function. The settings on record: i.t. injection.
Data set [4] is described as follows: Intravenous cocaine self-administration. Format: in vivo, mice. The settings on record: 2, 6 or 12 mg/kg i.p.; cocaine 0.1-1 mg/kg/infusion. As to the method: Once stable performance was achieved, self-administration was assessed once daily in 60 min sessions. Animals received vehicle (saline, i.p.) or SBI-553 (2, 6, or 12 mg/kg, i.p.) immediately prior to placement into self-administration chambers with access to cocaine at doses of 0.1, 0.3, 0.5, or 1 mg/kg/infusion. FIG. 7B-FIG. 7C show cocaine-induced and methamphetamine-induced hyperlocomotion.
The effect of SBI-553 on cocaine self-administration was both cocaine-dose dependent and SBI-553-dose dependent. […] In the presence of β-arrestin2, SBI-553 reduced activity in mice. A 12 mg/kg (i.p.) dose of SBI-553 decreased both cocaine-and methamphetamine-induced hyperlocomotion in wild-type (WT) mice on a C57BL/6J background (FIG. 7B-FIG. 7C). […] Conversely, a significant reduction in locomotion was absent in global β-arrestin2 KO mice (Slosky L M, et al. (2020) Cell. 181(6):1364-1379e14).

The conditions of data set [5]: global β-arrestin2 KO mice; cited from earlier work.
Data set [6] has as its target T1, NTSR1 (Homo sapiens, UniProt P30989). The data set can be described thus: Confocal β-arrestin2 translocation assay in U2OS cells expressing NTSR1 and β-arrestin2-GFP. Format: cell-based. Set-up: expressed in transfected cells; also transient transfection. The settings on record: compared with NT. The protocol: Scale bar, […]. […] The ordinate axis in counts per minute (CPM) represents specifically bound ^125I-NT. In each experiment, the assays were conducted in quadruplicate, and data are expressed as the mean+SEM (n=4 separate experiments) and were analyzed using one-way ANOVA with Tukey's multiple comparison post hoc test. Curve fitting and statistical analyses were performed using GraphPad Prism V5.04.
The translocation of β-arrestin2 to the membrane by NTSR1 was assessed using a U2OS cell line permanently expressing the NTSR1 and green fluorescent protein (GFP) tagged-β-arrestin2, as described (Barak et al., 2016). Briefly, on day 1, stable cells were split into MGB101-1-2-LG glass-bottom 384-well plates (MatriCal, Spokane, WA, USA). Each well contained 30) mL aliquots of 8,000 cells in Minimum Eagle's medium (MEM) containing 10% fetal bovine serum (FBS) and 100 U/mL penicillin/streptomycin (Life Technologies, Grand Island, NY, USA). The plates were incubated overnight at 37°° C, in 5% CO2, and on the following day the media was changed to […] serum-and phenol red-free MEM. […] After treatment, plates were returned to the incubator for 40 min. […] Images were analyzed using a wavelet algorithm to measure formation of fluorescence aggregates (Evron et al., 2014). […] Analyzed image results were visually confirmed. […]
Target sequence in this assay (P30989 whole entry): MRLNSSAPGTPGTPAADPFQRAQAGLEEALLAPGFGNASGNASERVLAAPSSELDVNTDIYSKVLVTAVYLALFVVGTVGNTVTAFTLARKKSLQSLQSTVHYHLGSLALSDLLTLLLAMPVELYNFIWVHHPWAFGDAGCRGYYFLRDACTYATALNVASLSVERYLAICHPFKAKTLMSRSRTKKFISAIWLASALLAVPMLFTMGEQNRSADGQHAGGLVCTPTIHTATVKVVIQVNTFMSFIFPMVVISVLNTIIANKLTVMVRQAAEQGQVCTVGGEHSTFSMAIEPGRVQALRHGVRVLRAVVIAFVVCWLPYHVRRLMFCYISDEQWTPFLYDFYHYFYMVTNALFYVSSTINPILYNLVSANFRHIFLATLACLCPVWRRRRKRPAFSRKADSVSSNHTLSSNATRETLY
Target sequence in this assay (P32121 whole entry partner): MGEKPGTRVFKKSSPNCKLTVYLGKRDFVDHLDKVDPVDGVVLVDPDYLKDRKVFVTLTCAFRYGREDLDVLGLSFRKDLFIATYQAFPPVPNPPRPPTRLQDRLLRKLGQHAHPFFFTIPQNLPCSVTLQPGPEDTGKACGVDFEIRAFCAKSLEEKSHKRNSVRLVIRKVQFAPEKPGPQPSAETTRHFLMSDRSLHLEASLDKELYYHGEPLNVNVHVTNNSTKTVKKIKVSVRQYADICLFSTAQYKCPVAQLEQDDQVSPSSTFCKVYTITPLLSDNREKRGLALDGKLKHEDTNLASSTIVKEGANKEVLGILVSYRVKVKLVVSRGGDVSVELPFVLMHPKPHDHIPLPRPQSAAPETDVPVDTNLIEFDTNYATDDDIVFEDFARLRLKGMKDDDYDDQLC

A short description of a further data set: Pharmacokinetics in rat. Format: in vivo.
In data set [7] the target is T1, NTSR1. As to the kind of experiment: Gq protein activation / intracellular Ca++ (FIG. 5A). The arrangement: expressed in transfected cells; host or cells: HEK293T cell membranes. The settings on record: unlike NT. It counts as cell-based. The source says:
Preliminary studies provided significant data for this example. SBI-553 was derived from a medicinal chemistry campaign to improve the ML314 probe series and was selected for potency, pharmacokinetic profile, and selectivity for NTSR1 over the NTSR2 (Pinkerton A B, et al. (2019) J Med Chem. 62(17):8357-8363, which is incorporated by reference for its teachings of the making of SBI-553). […] Binding specificity to NTSR1 was further confirmed by comparing membranes containing an off-target receptor (i.e., b2-adrenergic receptor) (Slosky L M, et al. (2020) Cell. 181(6):1364-1379e14). […] These findings indicate that SBI-553 is a β-arrestin-biased ligand that stimulates β-arrestin-mediated processes at NTSR1 […] without activating Gq protein signaling (FIG. 5).
Target sequence in this assay (P30989 whole entry): as the sequence (P30989 whole entry) above

Data set [8] can be described thus: Core body temperature measurement. It counts as in vivo, C57BL/6J mice. The protocol:
Core body temperatures were recorded from age-matched male and female C57BL/6J mice prior to treatment (Time 0) and 30 min, 60 min, 120 min, and 300 min post-treatment using a rectal probe thermometer for mice (Thermalert Model TH-8, Physitemp Instruments, Inc., Clifton, NJ). On three days of the week leading up to the study, animals were handled and temperatures were taken to acclimate the animals to the procedure.
SBI-553 treatment was not associated with hypothermia or hypotension. In addition to modulating motivated behavior. […] SBI-553 (at 2-30 mg/kg, i.p.) had no effect on core body temperature (FIG. 6B). […] This was an effect not secondary to hypothermia as body temperature was maintained by thermal support. These findings indicate that a Gq protein-dependent mechanism mediates NTSR1-associated side effects and is not engaged by SBI-553. Consistent with an antagonist like action at NTSR1.

Setting [9] is: brain, 30 mg/kg, 30 mpk po (pa [sic]), 1 h, read-out: brain:plasma @ 1 h.
The mark [10] stands for this setting: plasma, 30 mg/kg, 5 mpk iv and 30 mpk po.

A word on the Vd: it is a proportionality between amount in the body and measured concentration, not a real space. What is called Cmax is the peak of the concentration-time curve. The term bioavailability denotes dose-corrected exposure relative to a reference, in per cent. What is called AUC is the area under the concentration-time curve, a measure of exposure.

Turning to `COc1ccccc1C1CCN(c2nc(C3(F)CC3)nc3ccc(N(C)CCO)cc23)CC1` [SBI-553], the CIp in data set [1] (5 mpk iv (printed tv)) is 44.8 mL/min/kg; in “Pharmacokinetics in rat” (5 mpk iv (printed tv)) it was 81 mL/min/kg. For the same compound, the Vd in [1] (5 mpk iv (printed tv)) came to 6.16 L/kg; in “Pharmacokinetics in rat” (5 mpk iv (printed tv)) it was 7.02 L/kg. The Cmax in [1] (30 mpk po (pa [sic])) was found to be 1460 ng/mL; in “Pharmacokinetics in rat” (30 mpk po (pa [sic])), 3482 ng/mL. The figures for the T2/2 (in [1] (30 mpk po (pa [sic])); in the data set “Pharmacokinetics in rat” (30 mpk po (pa [sic]))) were 5.28 h and 2.23 h, respectively. The Kp at 1 h in [1] (setting [9]) came out at 54; in “Pharmacokinetics in rat” (setting [9]), 0.98. The bioavailability in [1] (setting [10]) is 45%; in the data set “Pharmacokinetics in rat” (setting [10]), 48%. The figures for the exposure (AUC) (in data set [1] (route not marked); in the data set “Pharmacokinetics in rat” (route not marked)) were 4824 ng·h/mL and 2693 ng·h/mL, respectively. Also, the “Excitatory synaptic transmission (sEPSCs) in lamina IIo neurons” value in the data set with lamina IIo neurons is listed as “significantly suppressed”. For the same compound, the “Methamphetamine conditioned place preference” value in data set [2] is recorded as “reduced”. The “Rotarod testing versus vehicle” value in [3] is recorded as “no significant difference”. Moreover, in data set [4], the Cocaine self-administration result is recorded as “maintenance intake reduction”. Also, in data set [5], the “Significant reduction in locomotion” value was “absent”. Further, on NTSR1 [6], the “Intracellular translocation of β-arrestin” value was “as effective as NT”. In addition, the “Activation of G protein Gq / intracellular Ca++” value at NTSR1 [7] is “cannot activate the G protein Gq”. The Core body temperature entry in data set [8] (2-30 mg/kg, i.p.) is “no effect”. In data set [8] (pretreatment p.o. 30 min prior to PD149163 (i.p.)), the “Reversal of PD149163-associated decrease in body temperature” value is listed as “dose-dependently reversed”.
